In patent publication US9050341B2, “Methods of treating drug resistant and other tumors by administering 6,7-dialkoxy quinazoline derivatives” (NATCO PHARMA LIMITED, priority 2009, dated 2015):

How the values were obtained:
Experiment in all cases: KinomeScan kinase profiling
Assay type in all cases: binding
SRPK3 = target: T1, SRPK3 (Homo sapiens, UniProt Q9UPE1)
T1 construct: host or cells: E. coli host derived from the BL21 strain, T7 phage lysate

ABL1 (T315I) = target: T2, ABL1 (T315I) (Homo sapiens, UniProt P00519, T315I)
T2 construct: host or cells: E. coli host derived from BL21 (T7 phage lysate)

ERK2 = target: T3, ERK2 (Homo sapiens, UniProt P28482)
T3 construct: host or cells: E. coli host derived from BL21, T7 phage lysate

PDPK1 = target: T4, PDPK1 (Homo sapiens, UniProt O15530)
T4 construct: host or cells: E. coli host derived from the BL21 strain, infected with T7 phage

PAK6 = target: T5, PAK6 (Homo sapiens, UniProt Q9NQU5)
T5 construct: host or cells: E. coli host derived from the BL21 strain, infected with T7 phage

CSNK1G3 = target: T6, CSNK1G3 (Homo sapiens, UniProt Q9Y6M4)
T6 construct: purchased Ambit Biosciences Corp (KinomeScan); host or cells: T7 phage in E. coli host derived from BL21

IKK-beta = target: T7, IKK-beta (Homo sapiens, UniProt O14920)
T7 construct: host or cells: T7 phage in E. coli host derived from BL21

[1] = target: T8, RPS6KA3 (Kin.Dom.-1-N-terminal) (Homo sapiens, UniProt P51812)
T8 construct: RPS6KA3 (Kin.Dom.-1-N-terminal); host or cells: E. coli host derived from BL21, T7 phage lysate
T8 sequence (P51812 68-327 limits assumed): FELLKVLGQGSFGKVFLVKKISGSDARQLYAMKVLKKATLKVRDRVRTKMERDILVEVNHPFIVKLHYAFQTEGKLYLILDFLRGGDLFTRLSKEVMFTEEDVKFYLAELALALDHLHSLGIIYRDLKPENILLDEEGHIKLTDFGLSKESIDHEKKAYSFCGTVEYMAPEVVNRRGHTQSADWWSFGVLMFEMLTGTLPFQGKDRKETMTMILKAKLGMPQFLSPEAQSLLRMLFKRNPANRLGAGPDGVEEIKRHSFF

TAOK1 = target: T9, TAOK1 (Homo sapiens, UniProt Q7L7X3)
T9 construct: host or cells: E. coli host derived from the BL21 strain, T7 phage lysate

LATS2 = target: T10, LATS2 (Homo sapiens, UniProt Q9NRM7)
T10 construct: host or cells: T7 phage in E. coli host derived from BL21

EPHA1 = target: T11, EPHA1 (Homo sapiens, UniProt P21709)
T11 construct: host or cells: E. coli host derived from BL21, T7 phage lysate

PKN1 = target: T12, PKN1 (Homo sapiens, UniProt Q16512)
T12 construct: purchased Ambit Biosciences Corp (KinomeScan); host or cells: E. coli host derived from BL21, infected with T7 phage

MARK3 = target: T13, MARK3 (Homo sapiens, UniProt P27448)
T13 construct: host or cells: E. coli derived from BL21, infected with T7 phage
T13 sequence (P27448 whole entry): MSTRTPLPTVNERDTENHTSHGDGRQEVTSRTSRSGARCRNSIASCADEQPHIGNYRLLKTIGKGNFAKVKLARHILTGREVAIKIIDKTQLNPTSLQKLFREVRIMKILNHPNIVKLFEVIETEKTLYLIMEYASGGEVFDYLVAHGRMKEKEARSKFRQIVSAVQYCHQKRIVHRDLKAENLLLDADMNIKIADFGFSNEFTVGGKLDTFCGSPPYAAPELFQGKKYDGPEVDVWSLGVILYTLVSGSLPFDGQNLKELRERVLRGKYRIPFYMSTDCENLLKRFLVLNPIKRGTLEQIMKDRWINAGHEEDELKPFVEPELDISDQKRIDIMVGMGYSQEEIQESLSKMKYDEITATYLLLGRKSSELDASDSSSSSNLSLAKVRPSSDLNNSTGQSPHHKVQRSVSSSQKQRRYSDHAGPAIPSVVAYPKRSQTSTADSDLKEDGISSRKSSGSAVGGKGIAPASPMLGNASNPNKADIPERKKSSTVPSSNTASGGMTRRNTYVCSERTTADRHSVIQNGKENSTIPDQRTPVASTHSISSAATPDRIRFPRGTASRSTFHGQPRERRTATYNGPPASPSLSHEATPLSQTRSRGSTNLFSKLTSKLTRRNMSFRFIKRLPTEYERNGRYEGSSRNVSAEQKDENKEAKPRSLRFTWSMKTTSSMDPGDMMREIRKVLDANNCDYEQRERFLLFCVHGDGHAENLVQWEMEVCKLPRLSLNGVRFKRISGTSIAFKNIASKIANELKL

ULK2 = target: T14, ULK2 (Homo sapiens, UniProt Q8IYT8)
T14 construct: purchased Ambit Biosciences Corp (KinomeScan); host or cells: E. coli host derived from the BL21 strain (T7 phage lysate)

CDK2 = target: T15, CDK2 (Homo sapiens, UniProt P24941)
T15 construct: host or cells: T7 phage in E. coli (BL21-derived)

ABL1 (F317I) = target: T16, ABL1 (F317I) (Homo sapiens, UniProt P00519, F317I)
T16 construct: host or cells: E. coli host derived from BL21 (T7 phage lysate)

TGFBR1 = target: T17, TGFBR1 (Homo sapiens, UniProt P36897)
T17 construct: host or cells: E. coli host derived from the BL21 strain, T7 phage lysate
T17 sequence (P36897 34-503): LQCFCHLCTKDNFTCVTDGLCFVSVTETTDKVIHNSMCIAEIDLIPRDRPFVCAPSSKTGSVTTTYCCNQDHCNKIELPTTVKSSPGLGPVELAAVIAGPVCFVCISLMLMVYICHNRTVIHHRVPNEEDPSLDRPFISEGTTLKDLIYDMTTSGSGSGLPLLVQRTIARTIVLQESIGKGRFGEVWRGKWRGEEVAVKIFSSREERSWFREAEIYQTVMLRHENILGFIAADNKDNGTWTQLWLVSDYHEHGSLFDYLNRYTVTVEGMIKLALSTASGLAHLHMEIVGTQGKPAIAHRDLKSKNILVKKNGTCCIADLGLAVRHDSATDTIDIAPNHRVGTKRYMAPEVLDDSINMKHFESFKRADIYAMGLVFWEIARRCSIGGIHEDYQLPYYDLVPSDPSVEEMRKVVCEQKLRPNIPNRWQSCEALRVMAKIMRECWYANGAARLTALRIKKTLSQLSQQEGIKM

CAMK2G = target: T18, CAMK2G (Homo sapiens, UniProt Q13555)
T18 construct: purchased Ambit Biosciences Corp (KinomeScan); host or cells: E. coli host derived from the BL21 strain, T7 phage
T18 sequence (Q13555 whole entry): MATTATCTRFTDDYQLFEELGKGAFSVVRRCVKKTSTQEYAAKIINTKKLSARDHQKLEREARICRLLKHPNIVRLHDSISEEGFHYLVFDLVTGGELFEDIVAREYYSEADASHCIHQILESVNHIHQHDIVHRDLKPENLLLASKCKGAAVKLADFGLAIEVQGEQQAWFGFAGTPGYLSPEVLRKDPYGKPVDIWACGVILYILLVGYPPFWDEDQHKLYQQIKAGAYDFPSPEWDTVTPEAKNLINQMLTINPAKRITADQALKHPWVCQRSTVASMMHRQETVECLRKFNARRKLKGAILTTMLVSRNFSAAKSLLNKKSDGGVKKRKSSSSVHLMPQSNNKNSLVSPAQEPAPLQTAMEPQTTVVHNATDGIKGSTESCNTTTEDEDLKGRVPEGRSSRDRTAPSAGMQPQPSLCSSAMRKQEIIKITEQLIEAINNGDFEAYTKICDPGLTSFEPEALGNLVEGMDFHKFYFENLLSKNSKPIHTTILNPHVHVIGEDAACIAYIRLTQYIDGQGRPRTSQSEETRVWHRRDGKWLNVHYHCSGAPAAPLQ

ACVR1B = target: T19, ACVR1B (Homo sapiens, UniProt P36896)
T19 construct: host or cells: E. coli host derived from BL21 (T7 phage lysate)

TLK2 = target: T20, TLK2 (Homo sapiens, UniProt Q86UE8)
T20 construct: purchased Ambit Biosciences Corp (KinomeScan); host or cells: E. coli host derived from the BL21 strain (T7 phage lysate)

HPK1 = target: T21, HPK1 (Homo sapiens, UniProt Q92918)
T21 construct: host or cells: E. coli host derived from BL21, infected with T7 phage

PKAC-beta = target: T22, PKAC-beta (Homo sapiens, UniProt P22694)
T22 construct: purchased Ambit Biosciences Corp (KinomeScan); host or cells: E. coli host derived from BL21, infected with T7 phage

DMPK2 = target: T23, DMPK2 (Homo sapiens, UniProt Q6DT37)
T23 construct: purchased Ambit Biosciences Corp (KinomeScan); host or cells: T7 phage in E. coli host derived from BL21
T23 sequence (Q6DT37 whole entry): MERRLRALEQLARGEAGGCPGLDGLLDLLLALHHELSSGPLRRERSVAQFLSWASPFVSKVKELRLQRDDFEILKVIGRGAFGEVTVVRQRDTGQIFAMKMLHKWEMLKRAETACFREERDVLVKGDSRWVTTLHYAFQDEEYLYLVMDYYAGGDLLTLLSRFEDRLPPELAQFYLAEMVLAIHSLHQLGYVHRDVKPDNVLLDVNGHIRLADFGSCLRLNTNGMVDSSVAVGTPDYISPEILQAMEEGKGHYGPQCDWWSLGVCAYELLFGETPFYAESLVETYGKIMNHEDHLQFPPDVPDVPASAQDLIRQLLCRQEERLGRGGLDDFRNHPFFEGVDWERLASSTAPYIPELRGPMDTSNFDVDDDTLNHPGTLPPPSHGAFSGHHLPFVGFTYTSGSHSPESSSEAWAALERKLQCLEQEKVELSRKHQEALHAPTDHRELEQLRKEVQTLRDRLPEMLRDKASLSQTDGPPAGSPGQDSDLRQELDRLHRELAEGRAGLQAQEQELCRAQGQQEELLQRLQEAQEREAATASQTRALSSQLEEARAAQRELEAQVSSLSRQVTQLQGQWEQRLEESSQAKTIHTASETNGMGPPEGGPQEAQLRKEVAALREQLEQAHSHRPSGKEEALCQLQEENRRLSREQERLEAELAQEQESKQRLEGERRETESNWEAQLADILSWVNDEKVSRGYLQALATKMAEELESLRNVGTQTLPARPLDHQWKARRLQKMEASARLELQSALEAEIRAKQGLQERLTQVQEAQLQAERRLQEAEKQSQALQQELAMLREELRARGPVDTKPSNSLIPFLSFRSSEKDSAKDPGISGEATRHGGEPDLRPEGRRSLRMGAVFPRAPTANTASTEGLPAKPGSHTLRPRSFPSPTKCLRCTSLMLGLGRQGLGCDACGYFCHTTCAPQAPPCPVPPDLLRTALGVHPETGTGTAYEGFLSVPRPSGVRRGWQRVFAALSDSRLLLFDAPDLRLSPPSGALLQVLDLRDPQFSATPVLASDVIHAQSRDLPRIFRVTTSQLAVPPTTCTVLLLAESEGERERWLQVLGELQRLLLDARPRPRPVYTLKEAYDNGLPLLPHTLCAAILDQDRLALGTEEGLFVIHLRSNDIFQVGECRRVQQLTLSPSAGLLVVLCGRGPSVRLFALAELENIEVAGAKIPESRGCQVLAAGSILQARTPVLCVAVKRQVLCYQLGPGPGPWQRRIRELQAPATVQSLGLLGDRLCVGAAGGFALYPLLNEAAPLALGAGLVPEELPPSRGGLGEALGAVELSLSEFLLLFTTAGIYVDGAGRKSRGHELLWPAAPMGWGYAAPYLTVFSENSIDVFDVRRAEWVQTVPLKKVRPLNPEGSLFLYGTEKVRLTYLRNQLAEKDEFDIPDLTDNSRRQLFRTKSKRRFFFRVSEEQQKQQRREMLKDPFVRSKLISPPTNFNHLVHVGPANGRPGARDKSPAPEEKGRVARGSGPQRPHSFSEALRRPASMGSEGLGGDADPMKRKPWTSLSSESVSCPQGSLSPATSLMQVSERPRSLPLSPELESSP

SRPK1 = target: T24, SRPK1 (Homo sapiens, UniProt Q96SB4)
T24 construct: host or cells: E. coli host derived from the BL21 strain, T7 phage lysate
T24 sequence (Q96SB4 whole entry): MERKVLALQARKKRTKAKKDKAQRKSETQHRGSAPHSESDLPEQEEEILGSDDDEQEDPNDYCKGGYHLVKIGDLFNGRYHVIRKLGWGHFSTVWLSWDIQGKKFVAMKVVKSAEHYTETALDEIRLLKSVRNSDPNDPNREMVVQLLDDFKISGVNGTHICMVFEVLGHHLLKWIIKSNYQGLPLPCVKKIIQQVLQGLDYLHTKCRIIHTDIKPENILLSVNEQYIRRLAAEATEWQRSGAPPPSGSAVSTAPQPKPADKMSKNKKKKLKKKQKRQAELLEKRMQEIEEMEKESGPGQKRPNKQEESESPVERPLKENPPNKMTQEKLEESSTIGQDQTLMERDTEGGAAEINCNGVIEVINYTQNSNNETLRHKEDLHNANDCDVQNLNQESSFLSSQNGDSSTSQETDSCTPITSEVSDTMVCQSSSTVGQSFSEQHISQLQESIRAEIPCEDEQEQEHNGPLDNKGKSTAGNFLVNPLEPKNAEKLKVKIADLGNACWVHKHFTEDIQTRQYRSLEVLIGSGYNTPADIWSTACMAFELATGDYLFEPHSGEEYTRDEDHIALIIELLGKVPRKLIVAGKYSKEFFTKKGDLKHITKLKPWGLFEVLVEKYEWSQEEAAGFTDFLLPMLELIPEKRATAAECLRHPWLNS

YES = target: T25, YES (Homo sapiens, UniProt P07947)
T25 construct: purchased Ambit Biosciences Corp (KinomeScan); host or cells: E. coli host derived from the BL21 strain (T7 phage lysate)
T25 sequence (P07947 whole entry): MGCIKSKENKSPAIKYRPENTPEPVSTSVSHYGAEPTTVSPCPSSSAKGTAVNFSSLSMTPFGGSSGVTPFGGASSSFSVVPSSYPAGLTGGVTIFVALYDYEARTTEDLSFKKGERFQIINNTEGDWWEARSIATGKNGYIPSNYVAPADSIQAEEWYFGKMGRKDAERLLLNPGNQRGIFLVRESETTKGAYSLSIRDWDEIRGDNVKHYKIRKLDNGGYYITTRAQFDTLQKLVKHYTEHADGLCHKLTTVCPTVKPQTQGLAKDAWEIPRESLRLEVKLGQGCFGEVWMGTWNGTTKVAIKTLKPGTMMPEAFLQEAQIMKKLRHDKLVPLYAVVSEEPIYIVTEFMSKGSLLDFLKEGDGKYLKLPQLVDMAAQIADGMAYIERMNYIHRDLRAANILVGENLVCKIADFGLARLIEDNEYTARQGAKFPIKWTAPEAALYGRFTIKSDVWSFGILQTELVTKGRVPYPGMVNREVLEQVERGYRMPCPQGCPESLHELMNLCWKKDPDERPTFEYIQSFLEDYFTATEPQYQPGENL

## C#Cc1cccc(Nc2ncnc3cc(OC)c(OCCCN4CCOCC4)cc23)c1 [NRC-2694, N-(3-ethylnylphenyl)-7-methoxy-6-[3-(4-morpholinyl)propoxy]-4-quinazolinamine]
SRPK3
  % Ctrl @ 10000 nM: 38 % Ctrl
ABL1 (T315I)
  % Ctrl @ 10000 nM: 35 % Ctrl
ERK2
  % Ctrl @ 10000 nM: 100 % Ctrl
PDPK1
  % Ctrl @ 10000 nM: 94 % Ctrl
PAK6
  % Ctrl @ 10000 nM: 70 % Ctrl
CSNK1G3
  % Ctrl @ 10000 nM: 61 % Ctrl
IKK-beta
  % Ctrl @ 10000 nM: 51 % Ctrl
[1]
  % Ctrl @ 10000 nM: 94 % Ctrl
TAOK1
  % Ctrl @ 10000 nM: 54 % Ctrl
LATS2
  % Ctrl @ 10000 nM: 93 % Ctrl
EPHA1
  % Ctrl @ 10000 nM: 55 % Ctrl
PKN1
  % Ctrl @ 10000 nM: 50 % Ctrl
MARK3
  % Ctrl @ 10000 nM: 62 % Ctrl
ULK2
  % Ctrl @ 10000 nM: 39 % Ctrl
CDK2
  % Ctrl @ 10000 nM: 94 % Ctrl
ABL1 (F317I)
  % Ctrl @ 10000 nM: 48 % Ctrl
TGFBR1
  % Ctrl @ 10000 nM: 83 % Ctrl
CAMK2G
  % Ctrl @ 10000 nM: 58 % Ctrl
ACVR1B
  % Ctrl @ 10000 nM: 63 % Ctrl
TLK2
  % Ctrl @ 10000 nM: 82 % Ctrl
HPK1
  % Ctrl @ 10000 nM: 47 % Ctrl
PKAC-beta
  % Ctrl @ 10000 nM: 88 % Ctrl
DMPK2
  % Ctrl @ 10000 nM: 61 % Ctrl
SRPK1
  % Ctrl @ 10000 nM: 40 % Ctrl
YES
  % Ctrl @ 10000 nM: 41 % Ctrl
